The values below come from patent publication US6906083B2 (dated 2005).

`COc1cc2c(cc1OC)C(=O)C(F)(CC1CCNCC1)C2.Cl` (stereo not drawn): the melting point (in general, the temperature, or range, at which the solid turns liquid) was > 240 °C (dec.).

As to `COc1cc2c(cc1OC)C(=O)C(F)(CC1CCN(CC(C)C)CC1)C2.Cl` (stereo not drawn), the melting point is 220 to 225 °C (dec.).

On to `COc1cc2c(cc1OC)C(=O)C(F)(CC1CCN(C)CC1)C2.Cl` (stereo not drawn), for which the melting point is 215 to 220 °C (dec.).
